Experiment [1] has as its system WT cell line SK-BR-3. Nature of the experiment: Cell Proliferation Assay (CellTiter-Glo), SK-BR-3. The conditions noted are these: Homo sapiens, 72 h; SK-BR-3, 3 days treatment. Format: cell-based. The protocol: The SK-BR-3 (ATCC, HTB-30) cell line was obtained from the American Type Culture Collection. Cells were maintained in McCoy' 5A medium (Gibco, REF #16600108) supplemented with 10% Fetal Bovine Serum. Cultures were maintained in a humidified incubator at 37° C. under 5% CO2/95% air.
Cell Proliferation Assay. PI3Kα H1047R mutated cell line T-47D cells and WT cell line SK-BR-3 were seeded at a density of 3×10^3 cells per well in 96 well plate (Xinyou Biotechnology, 062096) in 95 μL of culture medium, overnight. Compounds dissolved in 10 mM stock solutions in DMSO were serially diluted 1:3 in DMSO to generate a 9-point dilution series and plated using an INTEGRA ASSIST Plus pipetting robot. A 20× intermediate compound dilution plate in RPMI1640 medium (200 M starting compound concentration in 2% DMSO) was then prepared. Five μL of intermediate serially diluted compounds were added to the cell plate to final concentrations ranging from […] to 1 nM in 0.1% DMSO. 0.1% DMSO alone was used to establish the maximum signal and medium without cells was for minimum signal. After 3 days treatment, equilibrated the plate and its contents at room temperature for approximately 30 minutes. Added 30 μL CellTiter-Glo® Reagent (Promega, REF #G7571) to each well. Then mixed contents for 5 min on plate shaker to induce cell lysis. Incubated at room temperature for 10 minutes to stabilize luminescent signal. The plates were read on PHERAstar FSX Microplate reader using standard luminescence settings.
Relative IC50 values were determined using luminescence units by calculating percent inhibition with respect to the in-plate “MIN” (medium only) and “MAX” (0.1% DMSO) controls. The data were analyzed using a 4-parameter nonlinear logistic equation (four-parameter logistic concentration-response curve): Y=bottom+[(top−bottom)/1+(X/IC50) slope] • where Y=% inhibition, X=concentration of inhibitor, bottom=minimum value of y attained by curve-fit, top=maximum value of y attained by curve-fit and slope=steepness of curve at the IC50.

Experiment [2] addresses PI3Kα (p110/p85) kinase (wild type, "WT") (Homo sapiens, UniProt P42336). Kind of experiment: PI3Kα (p110/p85) kinase ADP-Glo Assay. Format: biochemical. The conditions noted are these: 25 uM ATP. In short, it runs like this:
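IC50 values come from a four-parameter logistic fit of ADP-Glo chemiluminescence, reflecting ADP formed. Enzyme, lipid substrate and […] compound were preincubated 30 min at room temperature, then 25 µM ATP was added for a 120 min reaction in 50 mM HEPES pH7.5, 3 mM MgCl2.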

Experiment [3] relates to WT cell line SK-BR-3. Kind of experiment: Phospho-AKT (Ser473) Inhibition Assay (HTRF), SK-BR-3. The experiment is classed as cell-based. The following applies: Homo sapiens; SK-BR-3, 1 hour treatment; read-out: p-AKT Inhibition assay (S473) IC50 SK-BR-3. In short, it runs like this:
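SK-BR-3 (PI3Kα WT) cells seeded overnight in MEM with insulin, then treated 1 h with 11-point 1:3 dilutions (10 μM to 0.1 nM, 0.1% DMSO). Lysates read for phospho-AKT Ser473 by HTRF after 4 h antibody incubation at room temperature. IC50 from 4-parameter fit, % inhibition normalized to DMSO (max) and 10 μM GDC0077 (min).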

Chain of PI3Kα (p110/p85) kinase (wild type, "WT") (P42336 whole entry): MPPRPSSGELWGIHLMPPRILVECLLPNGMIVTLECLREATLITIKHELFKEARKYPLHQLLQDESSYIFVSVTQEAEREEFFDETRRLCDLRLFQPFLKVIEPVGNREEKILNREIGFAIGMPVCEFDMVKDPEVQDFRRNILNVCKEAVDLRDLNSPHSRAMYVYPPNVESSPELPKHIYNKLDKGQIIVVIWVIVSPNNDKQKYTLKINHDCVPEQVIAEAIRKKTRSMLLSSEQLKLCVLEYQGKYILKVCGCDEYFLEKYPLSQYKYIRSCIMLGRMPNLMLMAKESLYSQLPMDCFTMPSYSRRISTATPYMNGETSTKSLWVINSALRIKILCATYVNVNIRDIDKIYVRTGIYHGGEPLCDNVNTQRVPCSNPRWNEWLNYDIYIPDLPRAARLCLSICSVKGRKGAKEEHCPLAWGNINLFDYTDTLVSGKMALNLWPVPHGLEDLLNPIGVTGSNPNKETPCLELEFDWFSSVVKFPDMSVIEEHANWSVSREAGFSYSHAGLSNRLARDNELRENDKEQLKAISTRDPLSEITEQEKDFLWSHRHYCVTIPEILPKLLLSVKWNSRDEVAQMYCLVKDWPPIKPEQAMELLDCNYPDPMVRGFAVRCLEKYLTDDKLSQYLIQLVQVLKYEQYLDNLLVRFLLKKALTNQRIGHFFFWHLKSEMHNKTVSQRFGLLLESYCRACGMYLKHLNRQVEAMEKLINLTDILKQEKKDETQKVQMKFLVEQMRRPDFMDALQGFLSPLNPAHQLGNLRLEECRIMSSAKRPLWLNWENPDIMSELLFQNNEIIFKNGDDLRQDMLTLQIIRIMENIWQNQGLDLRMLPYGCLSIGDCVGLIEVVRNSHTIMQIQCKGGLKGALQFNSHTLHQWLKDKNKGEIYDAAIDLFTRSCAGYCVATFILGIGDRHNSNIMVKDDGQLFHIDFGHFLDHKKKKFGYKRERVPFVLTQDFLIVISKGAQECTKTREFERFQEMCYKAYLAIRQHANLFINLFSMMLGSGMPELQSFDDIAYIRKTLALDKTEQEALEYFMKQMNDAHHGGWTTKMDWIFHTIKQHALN
Chain of PI3Kα (p110/p85) kinase (wild type, "WT") (P27986 whole entry partner): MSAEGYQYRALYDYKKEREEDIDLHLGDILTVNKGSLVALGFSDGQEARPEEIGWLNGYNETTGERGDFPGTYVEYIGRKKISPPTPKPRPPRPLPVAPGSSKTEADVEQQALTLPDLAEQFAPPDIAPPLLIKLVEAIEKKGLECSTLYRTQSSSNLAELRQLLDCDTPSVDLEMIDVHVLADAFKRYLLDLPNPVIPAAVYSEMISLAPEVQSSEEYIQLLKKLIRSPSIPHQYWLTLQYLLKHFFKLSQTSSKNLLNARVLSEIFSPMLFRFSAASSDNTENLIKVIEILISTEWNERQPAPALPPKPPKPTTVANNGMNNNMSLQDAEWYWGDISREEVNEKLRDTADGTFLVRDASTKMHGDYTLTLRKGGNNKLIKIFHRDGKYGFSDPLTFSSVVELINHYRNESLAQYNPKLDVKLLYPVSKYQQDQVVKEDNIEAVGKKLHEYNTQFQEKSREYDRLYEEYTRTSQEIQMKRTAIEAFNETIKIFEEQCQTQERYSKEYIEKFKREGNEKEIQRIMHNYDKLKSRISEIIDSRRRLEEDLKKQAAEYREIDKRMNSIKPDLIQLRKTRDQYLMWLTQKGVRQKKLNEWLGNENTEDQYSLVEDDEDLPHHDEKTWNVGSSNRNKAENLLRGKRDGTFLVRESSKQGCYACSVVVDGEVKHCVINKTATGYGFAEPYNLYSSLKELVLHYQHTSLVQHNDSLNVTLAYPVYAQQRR

Usually IC50 stands for the point on the concentration scale where inhibition reaches its midpoint. With `Cc1cc(C(C)Nc2ccccc2C(=O)O)c2cc(/C=C/c3ccccc3)n(C)c(=O)c2c1` (stereo not drawn) [Example 44, (E)-2-((1-(2,7-dimethyl-1-oxo-3-styryl-1,2-dihydroisoquinolin-5-yl)ethyl)amino)benzoic acid], the figures for the IC50 in experiment [1], in experiment [2] and in experiment [3] were over 10 µM, 1.84 µM and 2.13 µM, respectively.

As for `Cc1cc(C(C)Nc2ccccc2C(=O)O)c2cc(C3=Cc4ccccc4CC3)n(C)c(=O)c2c1` (stereo not drawn) [Example 45, 2-((1-(3-(3,4-dihydronaphthalen-2-yl)-2,7-dimethyl-1-oxo-1,2-dihydroisoquinolin-5-yl)ethyl)amino)benzoic acid], the IC50 is over 10 µM in experiment [1], 7.21 µM in experiment [2] and 2.82 µM in experiment [3].

In the case of `Cc1cc(C(C)Nc2ccccc2C(=O)O)c2cc(C3=CCN(c4ccccc4)CC3)n(C)c(=O)c2c1` (stereo not drawn) [Example 46, 2-((1-(2,7-dimethyl-1-oxo-3-(1-phenyl-1,2,3,6-tetrahydropyridin-4-yl)-1,2-dihydroisoquinolin-5-yl)ethyl)amino)benzoic acid], the IC50 is over 10 µM in experiment [1], 11.1 µM in experiment [2] and 5.07 µM in experiment [3].

As to `Cc1cc(C(C)Nc2cc3ccsc3cc2C(=O)O)c2cc(-c3ccccc3)n(C)c(=O)c2c1` (stereo not drawn) [Example 47, 5-((1-(2,7-dimethyl-1-oxo-3-phenyl-1,2-dihydroisoquinolin-5-yl)ethyl)amino)benzo[b]thiophene-6-carboxylic acid], the IC50 was over 10 µM in experiment [1], 14.3 µM in experiment [2] and over 10 µM in experiment [3].

Turning to `Cc1cc(C(C)Nc2c(C(=O)O)sc3ccccc23)c2cc(-c3ccccc3)n(C)c(=O)c2c1` (stereo not drawn) [Example 48, 3-((1-(2,7-dimethyl-1-oxo-3-phenyl-1,2-dihydroisoquinolin-5-yl)ethyl)amino)benzo[b]thiophene-2-carboxylic acid], the values for the IC50 in experiment [1], in experiment [2] and in experiment [3] were over 10 µM, 5.16 µM and 3.79 µM, respectively.

As to `Cc1cc(C(C)Nc2ccccc2C(=O)O)c2cc(-c3ccc(C(F)(F)F)cc3)n(C)c(=O)c2c1` (stereo not drawn) [Example 49, 2-((1-(2,7-dimethyl-1-oxo-3-(4-(trifluoromethyl)phenyl)-1,2-dihydroisoquinolin-5-yl)ethyl)amino)benzoic acid], the IC50 in experiment [1] is over 10 µM; in experiment [2], 9.53 µM; in experiment [3] it was 4.52 µM.

Regarding `Cc1cc(C(C)Nc2ccccc2C(=O)O)c2cc(-c3cccc(C(F)(F)F)c3)n(C)c(=O)c2c1` (stereo not drawn) [Example 50, 2-((1-(2,7-dimethyl-1-oxo-3-(3-(trifluoromethyl)phenyl)-1,2-dihydroisoquinolin-5-yl)ethyl)amino)benzoic acid], the IC50 in experiment [1] was over 10 µM; in experiment [2] it was 10.4 µM; in experiment [3] it was 6.85 µM.

As to `Cc1cc(C(C)Nc2ccccc2C(=O)O)c2cc(-c3ccc(C(C)(C)O)cc3)n(C)c(=O)c2c1` (stereo not drawn) [Example 51, 2-((1-(3-(4-(2-hydroxypropan-2-yl)phenyl)-2,7-dimethyl-1-oxo-1,2-dihydroisoquinolin-5-yl)ethyl)amino)benzoic acid], the IC50 was over 10 µM in experiment [1], 10.4 µM in experiment [2] and 6.45 µM in experiment [3].

For the molecule `CC#Cc1ccc(-c2cc3c(C(C)Nc4ccccc4C(=O)O)cc(C)cc3c(=O)n2C)cc1` (stereo not drawn) [Example 52, 2-((1-(2,7-dimethyl-1-oxo-3-(4-(prop-1-yn-1-yl)phenyl)-1,2-dihydroisoquinolin-5-yl)ethyl)amino)benzoic acid], the IC50 in experiment [1] is over 10 µM; in experiment [2], 9.45 µM; in experiment [3], 7.19 µM.

Consider `Cc1cc(C(C)Nc2ccccc2C(=O)O)c2cc(-c3ccc4c(c3)C3CC3O4)n(C)c(=O)c2c1` (stereo not drawn) [Example 53, 2-((1-(3-(1a,6b-dihydro-1H-cyclopropa[b]benzofuran-5-yl)-2,7-dimethyl-1-oxo-1,2-dihydroisoquinolin-5-yl)ethyl)amino)benzoic acid], for which the figures for the IC50 in experiment [1], in experiment [2] and in experiment [3] were over 10 µM, 4.84 µM and 2.53 µM, respectively.

As for `Cc1cc(C(C)Nc2ccccc2C(=O)O)c2cc(-c3ccc(C(C)(C)O)nc3)n(C)c(=O)c2c1` (stereo not drawn) [Example 55, 2-((1-(3-(6-(2-hydroxypropan-2-yl)pyridin-3-yl)-2,7-dimethyl-1-oxo-1,2-dihydroisoquinolin-5-yl)ethyl)amino)benzoic acid], the IC50 was over 10 µM in experiment [1], 26 µM in experiment [2] and over 10 µM in experiment [3].

Consider `Cc1cc([C@@H](C)Nc2ccccc2C(=O)O)c2cc(-c3ccc(C(C)(C)O)nc3)n(C)c(=O)c2c1` [Example 56, (R)-2-((1-(3-(6-(2-hydroxypropan-2-yl)pyridin-3-yl)-2,7-dimethyl-1-oxo-1,2-dihydroisoquinolin-5-yl)ethyl)amino)benzoic acid], for which the IC50 in experiment [1] is over 10 µM; in experiment [2], 17.1 µM; in experiment [3] it was over 10 µM.

In the case of `Cc1cc([C@H](C)Nc2ccccc2C(=O)O)c2cc(-c3ccc(C(C)(C)O)nc3)n(C)c(=O)c2c1` [Example 57, (S)-2-((1-(3-(6-(2-hydroxypropan-2-yl)pyridin-3-yl)-2,7-dimethyl-1-oxo-1,2-dihydroisoquinolin-5-yl)ethyl)amino)benzoic acid], the values for the IC50 in experiment [1], in experiment [2] and in experiment [3] were over 10 µM, 88.4 µM and over 10 µM, respectively.

On to `COc1ncc(-c2cc3c(C(C)Nc4ccccc4C(=O)O)cc(C)cc3c(=O)n2C)cc1F` (stereo not drawn) [Example 58, 2-((1-(3-(5-fluoro-6-methoxypyridin-3-yl)-2,7-dimethyl-1-oxo-1,2-dihydroisoquinolin-5-yl)ethyl)amino)benzoic acid], for which the IC50 is over 10 µM in experiment [1], 9.99 µM in experiment [2] and 3.16 µM in experiment [3].

Turning to `COc1ncc(-c2cc3c([C@@H](C)Nc4ccccc4C(=O)O)cc(C)cc3c(=O)n2C)cc1F` [Example 59, (R)-2-((1-(3-(5-fluoro-6-methoxypyridin-3-yl)-2,7-dimethyl-1-oxo-1,2-dihydroisoquinolin-5-yl)ethyl)amino)benzoic acid], the results for the IC50 in experiment [1], in experiment [2] and in experiment [3] were over 10 µM, 4.31 µM and over 10 µM, respectively.

In the case of `Cc1cc(C(C)Nc2ccccc2C(=O)O)c2cc(-c3cncnc3)n(C)c(=O)c2c1` (stereo not drawn) [Example 61, 2-((1-(2,7-dimethyl-1-oxo-3-(pyrimidin-5-yl)-1,2-dihydroisoquinolin-5-yl)ethyl)amino)benzoic acid], the results for the IC50 in experiment [1], in experiment [2] and in experiment [3] were over 10 µM, 19.5 µM and over 10 µM, respectively.

As to `Cc1cc(C(C)Nc2ccccc2C(=O)O)c2cc(-c3ccc(C4(O)CC4)cc3)n(C)c(=O)c2c1` (stereo not drawn) [Example 62, 2-((1-(3-(4-(1-hydroxycyclopropyl)phenyl)-2,7-dimethyl-1-oxo-1,2-dihydroisoquinolin-5-yl)ethyl)amino)benzoic acid], the IC50 in experiment [1] was over 10 µM; in experiment [2], 4.73 µM; in experiment [3] it was 2.97 µM.

`Cc1cc(C(C)Nc2ccccc2C(=O)O)c2cc(-c3ccc(F)cc3)n(CC#N)c(=O)c2c1` (stereo not drawn) [Example 63, 2-((1-(2-(cyanomethyl)-3-(4-fluorophenyl)-7-methyl-1-oxo-1,2-dihydroisoquinolin-5-yl)ethyl)amino)benzoic acid]: the figures for the IC50 in experiment [1], in experiment [2] and in experiment [3] were over 10 µM, 6.14 µM and 4.77 µM, respectively.

As for `Cc1cc([C@@H](C)Nc2ccccc2C(=O)O)c2cc(-c3ccc(F)cc3)n(CC#N)c(=O)c2c1` [Example 64, (R)-2-((1-(2-(cyanomethyl)-3-(4-fluorophenyl)-7-methyl-1-oxo-1,2-dihydroisoquinolin-5-yl)ethyl)amino)benzoic acid], the IC50 is over 10 µM in experiment [1], 2.48 µM in experiment [2] and over 10 µM in experiment [3].

Take `Cc1cc(C(C)Nc2ccccc2C(=O)O)c2cc(-c3cnc(C(C)(C)O)nc3)n(C)c(=O)c2c1` (stereo not drawn) [Example 66, 2-((1-(3-(2-(2-hydroxypropan-2-yl)pyrimidin-5-yl)-2,7-dimethyl-1-oxo-1,2-dihydroisoquinolin-5-yl)ethyl)amino)benzoic acid]: the IC50 in experiment [1] was over 10 µM; in experiment [2], 21.5 µM; in experiment [3] it was over 10 µM.

These data come from US20260125346A1, “Isoquinolinone Derivatives and 4H-Quinolizinone Derivatives and Pharmaceutical Compositions Thereof for the Treatment of Disease” (BeOne Medicines I GmbH, priority 2023, published 2026).
